ChEMBL document CHEMBL1127701, “Antineoplastic agents. 278. Isolation and structure of axinastatins 2 and 3 from a western Caroline Island marine sponge” (1994)
Values after ≈ are worked out from the molar mass of the structure shown. Where a SMILES comes first, the peptide text is derived from it.

Columns and labels:
Format in all cases: functional
A498 = assay: Tested for cytostatic activity against renal A498 cell line; details: Homo sapiens
OVCAR-3 = assay: Tested for cytostatic activity against ovarian OVCAR-3 cell line; details: Homo sapiens
SF-295 = assay: Tested for cytostatic activity against CNS SF-295 cell line; details: Homo sapiens
SK-MEL-5 = assay: Tested for cytostatic activity against melanoma SK-MEL-5 cell line; details: Homo sapiens
KM-20L2 = assay: Tested for cytostatic activity against colon KM20L2 cell line; details: Homo sapiens
NCI-H460 = assay: Tested for cytostatic activity against lung-NSC […] cell line; details: Homo sapiens
P388 = assay: Tested for in vitro cytotoxicity against the murine leukemia P388 cell line; details: Mus musculus, read-out: ED50 (the source's name)

Compound	GI50 (A498)	GI50 (OVCAR-3)	GI50 (SF-295)	GI50 (SK-MEL-5)	GI50 (KM-20L2)	GI50 (NCI-H460)	EC50 (P388)
CC[C@H](C)[C@@H]1NC(=O)[C@H](Cc2ccccc2)NC(=O)[C@@H]2CCCN2C(=O)[C@H](CC(N)=O)NC(=O)[C@H](C(C)C)NC(=O)[C@@H]2CCCN2C(=O)[C@H](CC(C)C)NC1=O (cyclo(FILPVNP))	0.11 µg/mL (≈ 0.141 µM)	0.0072 µg/mL (≈ 0.00922 µM)	0.18 µg/mL (≈ 0.23 µM)	0.012 µg/mL (≈ 0.0154 µM)	0.055 µg/mL (≈ 0.0704 µM)	0.033 µg/mL (≈ 0.0423 µM)	
CC(C)C[C@@H]1NC(=O)[C@H](C(C)C)NC(=O)[C@H](Cc2ccccc2)NC(=O)[C@@H]2CCCN2C(=O)[C@H](CC(N)=O)NC(=O)[C@H](C(C)C)NC(=O)[C@@H]2CCCN2C1=O (cyclo(FVLPVNP))	0.38 µg/mL (≈ 0.495 µM)	0.058 µg/mL (≈ 0.0756 µM)	0.35 µg/mL (≈ 0.456 µM)	0.068 µg/mL (≈ 0.0887 µM)	0.23 µg/mL (≈ 0.3 µM)	0.19 µg/mL (≈ 0.248 µM)	0.02 µg/mL (≈ 0.0261 µM)
